Measured values from ChEMBL document CHEMBL1141305, “Daphnipaxianines A-D, alkaloids from Daphniphyllum paxianum” (J Nat Prod, 2007).
Activity calls are given as the source filed them.

Columns and labels:
Type in all cases: functional, cell-based
MEF = assay: Cytotoxicity against mouse Bax and Bak deficient MEF cells
HCT-116 [1] = assay: Cytotoxicity against human Bax deficient HCT116 cells
HCT-116 [2] = assay: Cytotoxicity against human HCT116 cells

Measured: Activity

C[C@@H]1CN2C[C@H]3CC[C@@]4(O)CC(=O)C5=C4[C@@]4(CC5)C(=O)[C@@H]1C[C@@H]2[C@@]34C
inactive: all assays above

COC(=O)[C@@H]1C[C@]23CN4CC(CCC5(CCC1C52)C4)[C@@]31CC[C@](OC)(C(C)C)OC1 (some centres not stated)
inactive: all assays above

C[C@@H]1CN2C[C@H]3CCC4=C5[C@](O)(CC4)CC[C@@]54C(=O)[C@@H]1C[C@@H]2[C@@]34C
inactive: all assays above

C[C@@H]1CN2C[C@H]3CC[C@]4(O)CC(=O)C5=C4[C@@]4(CC5)C(=O)[C@@H]1C[C@@H]2[C@@]34C
inactive: all assays above
